US11369618B2, “Compounds, compositions and methods for prevention and/or treatment of cancer” (THE TRUSTEES OF THE UNIVERSITY OF PENNSYLVANIA, priority 2016, dated 2022)
“Also recorded” adds a separate entry of the source.

How the values were obtained:
[1] = system: mouse and human melanoma cell lines (B16F10, WM46, WM51, WM3702); assay: melanin assay (differentiation) of mouse and human melanoma cell lines in vitro; type: cell-based; details: estrogen 25 nM E2, G-1 100 nM, vs delivery vehicle
Excerpt: (§1) FIGS. 4A-4F illustrate the finding that GPER signaling slows proliferation and drives differentiation in mouse and human melanoma. FIG. 4A: 5 day proliferation assay of B16F10, WM46 (BRAF^V600E), WM51 (BRAF^V600E), and WM3702 (NRAS^Q61L) cells treated with estrogen (E2), * denotes significance by a two-tailed T-test, n=3 per group. FIG. 4B: 5 day melanin assay of B16F10, WM46 (BRAF^V600E), WM51 (BRAF^V600E), and WM3702 (NRAS^Q61L) cells treated with E2, * denotes significance by a two-tailed T-test, n=3 per group. FIG. 4C: 5 day proliferation assay of B16F10, WM46 (BRAF^V600E), WM51 (BRAF^V600E) and WM3702 (NRAS^Q61L) cells treated with GPER agonist (G-1), * denotes significance by a two-tailed T-test, n=3 per group. FIG. 4D: 5 day melanin assay of B16F10, WM46 (BRAF^V600E), WM51 (BRAF^V600E), and WM3702 (NRAS^Q61L) cells treated with G-1, * denotes significance by a two-tailed T-test, n=3 per group. FIG. 4E: 3 day proliferation assay of B16F10 cells treated with a dose response of G-1, * denotes significance One-way ANOVA with Tukey's multiple comparison test, n=5 per group. FIG. 4F: Western blot of B16F10 cells treated for 16 hours with a saturating dose response of G-1. […]
(§2) Tumor cell proliferation slowed in both mouse and human melanoma cells following treatment with estrogen or G-1, a specific GPER agonist. […] Cell proliferation and differentiation (melanin production) were measured.

normal human melanocytes = assay: differentiation of normal human melanocytes after continuous or transient hormone exposure (melanin, RNAseq, Western blot); type: cell-based; details: for melanocyte differentiation state (melanin pigment production) / melanin production after hormone withdrawal: normal human melanocytes; for melanocyte differentiation state (melanin pigment production): hormone or agonist exposure; for melanin production after hormone withdrawal: transient exposure then withdrawal
Method: (§3) FIG. 11A: Long-term melanin assay in which normal human melanocytes were transiently treated with progesterone (P4), or estrogen (E2). Subsets of these groups (Red) were treated with an additional transient pulse of P4 at Day 27. Error bars equal the standard deviation of the samples. FIG. 11B: Western blot of melanocyte differentiation markers after a transient, 4-day treatment with either vehicle or estrogen, followed by an 8 day withdraw period. FIG. 11C: Experimental timeline of estrogen or GPER agonist (G-1) pre-treatment of mouse and human melanoma cells, n=5 per group. FIG. 11D: Relative tumor weights of mouse and human melanomas pre-treated with estrogen, * denotes significance by the Mann-Whitney test. FIG. 11E: Relative tumor weights of mouse and human melanomas pre-treated with G-1, * denotes significance by the Mann-Whitney test.
Normal human melanocytes received a pulse-treatment of estrogen—this consisted of 4 days of estrogen treatment followed by an 8 day withdraw.
To test whether pregnancy-associated hormones induce long-lasting changes in melanocyte differentiation that may affect their future susceptibility to transformation, primary human melanocytes were transiently exposed to estrogen or progesterone (FIGS. 11A-11E).
A subset of cells differentiated by transient exposure to estrogen was subsequently treated with progesterone.

[2] = system: Mouse (B16) and human (WM46) melanoma cell lines; assay: tumor formation in mice from melanoma cells pretreated in vitro; type: in vivo
Method: as §3
Mouse (B16) and human (WM46) cell lines were pretreated with estrogen, G-1, or vehicle in vitro for one week then injected in equal numbers in to the left (vehicle-treated) or right (E2-treated) flank of mice, inducing tumor formation (N=5 mice per group) (FIG. 5). 14-16 days later, mice were imaged and tumors were harvested and weighed.
To test whether transient GPER signaling induces a persistent differentiation state in melanoma cells that affects subsequent tumor growth in vivo, melanoma cells were treated with estrogen, G-1, or vehicle in vitro, and subsequently injected equal numbers of treated cells into host mice (FIG. 11C).

[3] = system: mouse and human melanoma cell lines (B16F10, WM46, WM51, WM3702); assay: proliferation assay of mouse and human melanoma cell lines in vitro; type: cell-based; details: estrogen 25 nM E2, G-1 100 nM, vs delivery vehicle
Excerpt: as §1, §2

[4] = system: histone posttranslational modifications; assay: mass spectrometry of histone posttranslational modifications in estrogen-treated melanocytes; type: cell-based, human
Excerpt: FIG. 16B: Western blot of p-RB, c-Myc, and H3K56ac in melanoma cells after treatment with G-1, HDACi, or in combination. FIG. 16C: Proliferation assay of B16F10 melanoma cells after treatment with G-1, HDACi, or in combination.
To begin to identify the epigenetic changes likely underlying stable melanocyte differentiation after GPER activation, mass spectrometry was used to obtain a global analysis of histone posttranslational modifications in estrogen-treated MC.

human melanocytes = assay: pigment production and differentiation in human melanocytes treated with MSH or afamelanotide (FIG. 9); type: cell-based
Excerpt: FIG. 9 is a set of bar graphs illustrating the finding that MSH (the endogenous equivalent of afamelanotide) and afamelanotide (also known as […] or NDP-α-MSH) increase pigment production (top) and differentiation (bottom) in human melanocytes.

| Compound | differentiation (melanin production) [1] | expression of aggressive melanoma markers such as premelanosome protein (PMEL) (normal human melanocytes; 4 days of treatment followed by an 8 day withdraw, RNAseq) | expression of melanocyte differentiation markers (TYR, TRP1, MC1R, MLANA, DCT) (normal human melanocytes; 4 days of treatment followed by an 8 day withdraw, RNAseq, Western blot) | melanocyte differentiation state (melanin pigment production) (normal human melanocytes) | melanocyte differentiation state (melanin pigment production) (normal human melanocytes; listed as Estrogen) | melanin production after hormone withdrawal (normal human melanocytes) | inhibition of tumor growth in vivo ([2]; cells pretreated in vitro for one week, injected into flank of mice, tumors weighed 14-16 days later) | tumor growth / tumor size from pretreated cells ([2]; melanoma cells pretreated in vitro, equal numbers injected into mice) | melanoma cell proliferation [3] | H3K9ac mark [4] | histone acetylation marks regulated by CBP/P300, including H3K122, H3K23, and H3K18 ([4]; 3 independent biologic replicates) | differentiation (human melanocytes) | pigment production (human melanocytes) |
| --- | --- | --- | --- | --- | --- | --- | --- | --- | --- | --- | --- | --- | --- |
| C[C@]12CC[C@@H]3c4ccc(O)cc4CC[C@H]3[C@@H]1CC[C@@H]2O [estrogen, estradiol] | drove differentiation | decreased expression | maintained upregulated expression of all the major melanocyte differentiation markers; also recorded: stable increases in classic melanocyte differentiation antigens | increases melanocyte differentiation state; also recorded: increase the differentiation state of human melanocytes | make more pigment; also recorded: increased melanin production | stably produced more melanin | approximately 3 fold | formed significantly smaller tumors; also recorded: markedly reduced subsequent tumor size; also recorded: inhibits melanoma cell line growth in vivo | slowed melanoma cell proliferation | decreased | significant increases | – | – |
| CC(=O)[C@H]1CC[C@H]2[C@@H]3CCC4=CC(=O)CC[C@]4(C)[C@H]3CC[C@]12C [progesterone] | – | – | – | had opposite effects | – | quickly returned to their baseline level of melanin production | – | – | – | – | – | – | – |
| MSH: the endogenous equivalent of afamelanotide (Ac-SYSMEHFRWGKPV-NH2; ends and bridges not checked; UniProt P01189 138-150, looked up) | – | – | – | – | – | – | – | – | – | – | – | increase | increase |
